Experimental data as given in patent publication US9371336B2, “Compounds for treating spinal muscular atrophy” (PTC Therapeutics Inc., priority 2012, dated 2016).

Columns and labels:
Smn protein [1] = assay: Smn protein assay in tissues of adult C/C-allele SMA mice (HTRF); assay type: in vivo, mouse; conditions: 50 mg/kg BID for 10 days, relative to vehicle group, p<0.001 by ANOVA, n=10 (FIG. 8)
Protocol: (§1) The Smn HTRF protein assay is used to quantify the level of Smn protein in mouse tissues.
(§2) The tissue samples in Safe-Lock tubes are weighed and the volume of RIPA buffer containing the protease inhibitor cocktail is added based on the weight to volume ratios for each type of tissue: Brain (50 mg/mL), Muscle (50 mg/mL) and Spinal Cord (25 mg/mL).
(§3) Tissues are homogenized using the TissueLyzer by bead milling. 5 mm stainless steel beads are added to the sample and shaken vigorously for 5 minutes at 30 Hz in the TissueLyzer. The samples are then centrifuged for 20 minutes at 14,000×g in a microcentrifuge and the homogenates transferred to the PCR plate. The homogenates are diluted in RIPA buffer to approximately 1 mg/mL for HTRF and approximately 0.5 mg/mL for total protein measurement using the BCA protein assay. For the SMN HTRF assay, 35 μL of the tissue homogenate is transferred to a 384-well plate containing 5 μL of the antibody solution (1:100 dilution of each of the anti-SMNd2 and anti-SMN Kryptate in reconstitution buffer). […] Fluorescence for each well of the plate at 665 nm and 620 nm is measured on an EnVision multilabel plate reader (Perkin-Elmer). The total protein in the tissue homogenate is measured using the BCA assay according to the manufacturer's protocol.
(§4) The normalized fluorescence signal is calculated for each sample, Blank and vehicle control well by dividing the signal at 665 nm by the signal at 620 nm. Normalizing the signal accounts for possible fluorescence quenching due to the matrix effect of the tissue homogenate. The ΔF value (a measurement of Smn protein abundance as a percent value) for each tissue sample well is calculated by subtracting the normalized average fluorescence for the Blank control wells from the normalized fluorescence for each tissue sample well, then dividing this difference by the normalized average fluorescence for the Blank control wells and multiplying the resulting value by 100. The ΔF value for each tissue sample well is divided by the total protein quantity (determined using the BCA assay) for that tissue sample. […]

[2] = tested on: gems (Smn-dependent nuclear speckles) in SMA patient fibroblast cells; assay: Gems count (Smn-dependent nuclear speckle count) assay; assay type: cell-based, human; conditions: SMA Type 1 patient cells, 48 hour, fluorescence microscopy (FIG. 7)
Text: The level of Smn protein directly correlates with the amount of nuclear foci, also known as gems, produced upon staining the cell with a fluorescently labeled anti-Smn antibody (Liu and Dreyfuss, EMBO J., 1996, 15:3555). Gems are multi-protein complexes whose formation is nucleated by the Smn protein and the gems count assay is used to evaluate the level of Smn protein in the cell. As described herein, the gems count assay is used to quantify the level of Smn protein in SMA patient fibroblast cells treated with a test compound.
Cells are thawed and incubated in DMEM-10% FBS for 72 hours, then trypsinized, counted and resuspended to 100,000 cells/mL in DMEM-10% FBS. The cell suspension (2 mL) is plated in a 6-well cell culture plate with a sterile cover slip and incubated for 3 to 5 hours. Test compounds are serially diluted 3.16-fold in 100% DMSO to generate a 7-point dilution curve. […]
Cell culture medium is aspirated from the wells containing cover slips and gently washed three times with cold PBS. […] The number of gems is counted per ≧150 nuclei and % activation is calculated using DMSO and 10 nM bortezomib as controls. For each test compound, the cells are examined at all wavelengths to identify test compounds with inherent fluorescence.

Smn protein [3] = assay: Smn protein in tissues of neonatal Δ7 SMA mice (HTRF); assay type: in vivo, mouse; conditions: neonatal SMA Δ7 homozygous knockout mice
Protocol: as §1, §2, §3, §4

Structure (SMILES) | total protein-normalized Smn level, brain (Smn protein [1]) | total protein-normalized Smn level, muscle (Smn protein [1]) | total protein-normalized Smn level, spinal cord (Smn protein [1]) | gems (nuclear speckle count) relative to DMSO [2] | total protein normalized Smn level, brain (Smn protein [3]; QD IP for 7 days (PND 3 to PND 9) (FIG. 9a)) | total protein normalized Smn level, spinal cord (Smn protein [3]; QD IP for 7 days (PND 3 to PND 9) (FIG. 9b)) | total protein normalized Smn level, muscle (Smn protein [3]; QD IP for 7 days (PND 3 to PND 9) (FIG. 9c))
CN1CCN(c2ccc3cc(-c4nc5c(Cl)cccc5s4)c(=O)oc3n2)CC1 [Cpd 5, 3-(4-chloro-1,3-benzothiazol-2-yl)-7-(4-methylpiperazin-1-yl)-2H-pyrano[2,3-b]pyridin-2-one] | increased | increased | increased | progressively more gems | – | – | –
Cc1ccc2nc(-c3cc4ccc(N5CCN(C)CC5)nc4oc3=O)cn2c1 [Cpd 27, 3-(6-methylimidazo[1,2-a]pyridin-2-yl)-7-(4-methylpiperazin-1-yl)-2H-pyrano[2,3-b]pyridin-2-one] | – | – | – | – | dose dependently increased | dose dependently increased | dose dependently increased
